In patent publication US8501732B2, “Aminomethyl quinolone compounds” (Hoffmann-La Roche Inc., priority 2011, dated 2013):

What was measured:
JNK1 = JNK1 (Homo sapiens (Human), UniProt P45983); test: In Vitro JNK1 Assay (TR-FRET, phosphorylation of GST-c-Jun); assay type: biochemical; settings: 0.2 nM active JNK1 kinase, 26.7 nM GST-c-Jun, 2 μM ATP, 30 min at room temperature
Outline: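 GST-c-Jun (residues 1-79) phosphorylation by JNK1 in 50 mM HEPES pH 7.0, MgCl2, 1 mM DTT, 0.1 mM Na3VO4, 0.2 mg/mL BSA, 30 min at room temperature. Stopped with EDTA plus anti-phospho-c-Jun antibody and read by TR-FRET 1 hr later. IC50 from percent inhibition over 10 serial dilutions.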

[1] = tested on: phospho(Ser63)-c-jun in HK-2 cells; test: Cell-Based Assay for JNK Inhibitors (in-cell ELISA, phospho(Ser63)-c-jun after TNFα); settings: HK-2 cells (human proximal tubule cells), 60 minutes compound, then 10 ng/mL TNFα for 30 minutes
Outline: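 HK-2 human proximal tubule cells were seeded at 40,000 cells/well, cultured 24 h, then serum-starved 16–24 h before TNFα stimulation with compound. Phospho(Ser63)-c-jun was quantified by in-cell ELISA on fixed, permeabilised cells, using a rabbit phospho-specific primary (overnight, 4 °C) and an HRP-linked anti-rabbit secondary. Absorbance was read at 450 nm.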

Sequence of JNK1 (P45983 whole entry, the tested form may be a part): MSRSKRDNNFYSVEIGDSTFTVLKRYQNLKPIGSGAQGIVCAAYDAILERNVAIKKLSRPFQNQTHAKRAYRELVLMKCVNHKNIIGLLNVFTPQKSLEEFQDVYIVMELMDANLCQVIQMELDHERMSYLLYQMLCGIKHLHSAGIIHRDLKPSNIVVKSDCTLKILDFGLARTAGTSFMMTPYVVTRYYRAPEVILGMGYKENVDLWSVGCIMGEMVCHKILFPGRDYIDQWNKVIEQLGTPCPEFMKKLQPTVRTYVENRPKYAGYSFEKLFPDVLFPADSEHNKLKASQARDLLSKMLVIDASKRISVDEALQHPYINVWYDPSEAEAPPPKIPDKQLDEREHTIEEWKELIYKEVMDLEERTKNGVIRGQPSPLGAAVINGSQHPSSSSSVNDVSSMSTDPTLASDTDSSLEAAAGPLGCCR

Compound	IC50 (JNK1) [nM]	EC50 [1] [nM]
COC(=O)c1c(CNC(=O)c2cnn(Cc3ccccc3)c2)c(=O)c2ccc(Cl)cc2n1-c1ccccc1 [Example I-119, 3-{[(1-Benzyl-1H-pyrazole-4-carbonyl)-amino]-methyl}-7-chloro-4-oxo-1-phenyl-1,4-dihydro-quinoline-2-carboxylic acid methyl ester]	13	6300
COC(=O)c1c(CNC(=O)c2ccc3cc[nH]c3c2)c(=O)c2ccc(Cl)cc2n1-c1ccccc1 [Example I-120, 7-Chloro-3-{[(1H-indole-6-carbonyl)-amino]-methyl}-4-oxo-1-phenyl-1,4-dihydro-quinoline-2-carboxylic acid methyl ester]	15	3000
COC(=O)c1c(CNC(=O)c2cnn(C)c2)c(=O)c2ccc(Cl)cc2n1-c1ccccc1 [Example I-121, 7-Chloro-3-{[(1-methyl-1H-pyrazole-4-carbonyl)-amino]-methyl}-4-oxo-1-phenyl-1,4-dihydro-quinoline-2-carboxylic acid methyl ester]	15	1800
COC(=O)c1c(CNC(=O)c2ccc(-c3cc[nH]n3)cc2)c(=O)c2ccc(Cl)cc2n1-c1ccccc1 [Example I-122, 7-Chloro-4-oxo-1-phenyl-3-{[4-(1H-pyrazol-3-yl)-benzoylamino]-methyl}-1,4-dihydro-quinoline-2-carboxylic acid methyl ester]	15	3300
COC(=O)c1c(CNC(=O)c2ccc(N3CCOCC3)cc2)c(=O)c2ccc(Cl)cc2n1-c1ccccc1 [Example I-123, 7-Chloro-3-[(4-morpholin-4-yl-benzoylamino)-methyl]-4-oxo-1-phenyl-1,4-dihydro-quinoline-2-carboxylic acid methyl ester]	16	2200
COC(=O)c1c(CNC(=O)c2ccc(-c3noc(C)n3)cc2)c(=O)c2ccc(Cl)cc2n1-c1ccccc1 [Example I-125, 7-Chloro-3-{[4-(5-methyl-[1,2,4]oxadiazol-3-yl)-benzoylamino]-methyl}-4-oxo-1-phenyl-1,4-dihydro-quinoline-2-carboxylic acid methyl ester]	22	18000
COC(=O)c1c(CNC(=O)C2CCN(C(=O)OC(C)(C)C)CC2)c(=O)c2ccc(Cl)cc2n1-c1ccccc1 [Example I-128, 3-{[(1-tert-Butoxycarbonyl-piperidine-4-carbonyl)-amino]-methyl}-7-chloro-4-oxo-1-phenyl-1,4-dihydro-quinoline-2-carboxylic acid methyl ester]	35	100000
COC(=O)c1c(CNC(=O)C2CCN(C(C)=O)CC2)c(=O)c2ccc(Cl)cc2n1-c1ccccc1 [Example I-130, 3-{[(1-Acetyl-piperidine-4-carbonyl)-amino]-methyl}-7-chloro-4-oxo-1-phenyl-1,4-dihydro-quinoline-2-carboxylic acid methyl ester]	220	100000
COC(=O)c1c(CNC(=O)c2cccc(OC)c2)c(=O)c2ccc(Cl)cc2n1-c1ccccc1 [Example I-135, 7-Chloro-3-[(3-methoxybenzoylamino)-methyl]-4-oxo-1-phenyl-1,4-dihydro-quinoline-2-carboxylic acid methyl ester]	8	4800
COC(=O)c1c(CNC(=O)c2ccncc2)c(=O)c2ccc(Cl)cc2n1-c1ccccc1 [Example I-136, 7-Chloro-4-oxo-1-phenyl-3-{[(pyridine-4-carbonyl)-amino]-methyl}-1,4-di-hydro-quinoline-2-carboxylic acid methyl ester]	12	7900
COC(=O)c1c(CNC(=O)c2cccc(Cl)c2)c(=O)c2ccc(Cl)cc2n1-c1ccccc1 [Example I-142, 7-Chloro-3-[(3-chloro-benzoylamino)-methyl]-4-oxo-1-phenyl-1,4-dihydro-quinoline-2-carboxylic acid methyl ester]	17	9700
COC(=O)c1c(CNC(=O)c2ccc(Cl)c(Cl)c2)c(=O)c2ccc(Cl)cc2n1-c1ccccc1 [Example I-144, 7-Chloro-3-[(3,4-dichloro-benzoylamino)-methyl]-4-oxo-1-phenyl-1,4-dihydro-quinoline-2-carboxylic acid methyl ester]	48	8800
COC(=O)c1c(CNC(=O)c2ccccc2F)c(=O)c2ccc(Cl)cc2n1-c1ccccc1 [Example I-145, 7-Chloro-3-[(2-fluoro-benzoylamino)-methyl]-4-oxo-1-phenyl-1,4-dihydro-quinoline-2-carboxylic acid methyl ester]	65	100000
COC(=O)c1c(CNC(=O)c2ccccc2)c(=O)c2ccc(Cl)cc2n1-c1ccccc1 [Example I-150, 7-Chloro-3-[(benzoylamino)-methyl]-4-oxo-1-phenyl-1,4-dihydro-quinoline-2-carboxylic acid methyl ester]	12	7700
COC(=O)c1c(CNC(=O)c2ccccc2)c(=O)c2ccccc2n1-c1ccccc1 [Example I-151, 3-(Benzoylamino-methyl)-4-oxo-1-phenyl-1,4-dihydro-quinoline-2-carboxylic acid methyl ester]	39	14000

Other lines, results leading:

IC50 (JNK1) [nM]	EC50 [1] [nM]	Compound
17	7800	COC(=O)c1c(CNC(=O)c2ccc(-c3cnns3)cc2)c(=O)c2ccc(Cl)cc2n1-c1ccccc1 [Example I-124, 7-Chloro-4-oxo-1-phenyl-3-[(4-[1,2,3]thiadiazol-5-yl-benzoylamino)-methyl]-1,4-dihydro-quinoline-2-carboxylic acid methyl ester]
29	14000	COC(=O)c1c(CNC(=O)c2ccc(-c3nc(C)no3)cc2)c(=O)c2ccc(Cl)cc2n1-c1ccccc1 [Example I-126, 7-Chloro-3-{[4-(3-methyl-[1,2,4]oxadiazol-5-yl)-benzoylamino]-methyl}-4-oxo-1-phenyl-1,4-dihydro-quinoline-2-carboxylic acid methyl ester]
31	38000	COC(=O)c1c(CNC(=O)c2ccc(-c3csc(C)n3)cc2)c(=O)c2ccc(Cl)cc2n1-c1ccccc1 [Example I-127, 7-Chloro-3-{[4-(2-methyl-thiazol-4-yl)-benzoylamino]-methyl}-4-oxo-1-phenyl-1,4-dihydro-quinoline-2-carboxylic acid methyl ester]
50	11000	COC(=O)c1c(CNC(=O)c2ccc(-c3nnn(C)n3)cc2)c(=O)c2ccc(Cl)cc2n1-c1ccccc1 [Example I-129, 7-Chloro-3-{[4-(2-methyl-2H-tetrazol-5-yl)-benzoylamino]-methyl}-4-oxo-1-phenyl-1,4-dihydro-quinoline-2-carboxylic acid methyl ester]
15	9200	COC(=O)c1c(CNC(=O)c2ccc(Cl)cc2)c(=O)c2ccc(Cl)cc2n1-c1ccccc1 [Example I-132, 7-Chloro-3-[(4-chloro-benzoylamino)-methyl]-4-oxo-1-phenyl-1,4-dihydro-quinoline-2-carboxylic acid methyl ester]
6	13000	COC(=O)c1ccc(C(=O)NCc2c(C(=O)OC)n(-c3ccccc3)c3cc(Cl)ccc3c2=O)cc1 [Example I-133, 7-Chloro-3-[(4-methoxycarbonyl-benzoylamino)-methyl]-4-oxo-1-phenyl-1,4-dihydro-quinoline-2-carboxylic acid methyl ester]
7	1900	COC(=O)c1c(CNC(=O)c2ccc(OC)cc2)c(=O)c2ccc(Cl)cc2n1-c1ccccc1 [Example I-134, 7-Chloro-3-[(4-methoxybenzoylamino)-methyl]-4-oxo-1-phenyl-1,4-dihydro-quinoline-2-carboxylic acid methyl ester]
13	10000	COC(=O)c1c(CNC(=O)c2cccc(F)c2)c(=O)c2ccc(Cl)cc2n1-c1ccccc1 [Example I-138, 7-Chloro-3-[(3-fluoro-benzoylamino)-methyl]-4-oxo-1-phenyl-1,4-dihydro-quinoline-2-carboxylic acid methyl ester]
13	9800	COC(=O)c1c(CNC(=O)c2cccnc2)c(=O)c2ccc(Cl)cc2n1-c1ccccc1 [Example I-139, 7-Chloro-4-oxo-1-phenyl-3-{[(pyridine-3-carbonyl)-amino]-methyl}-1,4-dihydro-quinoline-2-carboxylic acid methyl ester]
14	10000	COC(=O)c1c(CNC(=O)c2ccc(F)cc2)c(=O)c2ccc(Cl)cc2n1-c1ccccc1 [Example I-140, 7-Chloro-3-[(4-fluoro-benzoylamino)-methyl]-4-oxo-1-phenyl-1,4-dihydro-quinoline-2-carboxylic acid methyl ester]
15	7000	COC(=O)c1c(CNC(=O)c2ccc(F)c(Cl)c2)c(=O)c2ccc(Cl)cc2n1-c1ccccc1 [Example I-141, 7-Chloro-3-[(3-chloro-4-fluoro-benzoylamino)-methyl]-4-oxo-1-phenyl-1,4-dihydro-quinoline-2-carboxylic acid methyl ester]
39	1000	COC(=O)c1c(CNC(=O)c2ccc(OC)c(OC)c2)c(=O)c2ccc(Cl)cc2n1-c1ccccc1 [Example I-143, 7-Chloro-3-[(3,4-dimethoxy-benzoylamino)-methyl]-4-oxo-1-phenyl-1,4-dihydro-quinoline-2-carboxylic acid methyl ester]
